Laboratory results taken from patent US6951953B2, “Tumor selective and biodegradable polyphosphazene-platinum(II) conjugate antitumor agent, and preparation method thereof” (EWHA Womans University, priority 2003, dated 2005).
Where two headings read alike, the source gives them in different places.

What was measured:
[1] = tested on: gastric tumor cell line (YCC-3); test: In vivo xenograft test against a gastric tumor cell line (YCC-3); details: YCC-3 xenograft in nu/nu mice; for The tumor tissue size after injection of an antitumor agent: intraperitoneal; for tumor tissue growth rate / inhibition effect on it (in words): versus control group / cisplatin, after 60 days from injection
Description: The in vivo sensitivity of the present conjugate drug against a gastric tumor cell line (YCC-3) was assayed using nu/nu mice (6-8 weeks old, 20-25 g). After being treated with 0.25% Trypsin-EDTA, the cultivated tumor cells were centrifuged in PBS solution for 5 minutes. This process was repeated three or more times, and then the tumor cells were made into a single floated tumor cell. The concentration of the tumor cells in PBS solution was calculated from the number of cells measured by a hemocytometer. The tumor cells were then kept in ice and were injected into mice within 30 minutes. The single floated tumor cells (4×10^7) in 100 μl of PBS solution were subcutaneously injected into the right side of each mouse using an 1 ml syringe.
[…] In the case of the control group, only the same amount of PBS solution was injected. Weights of the mice and tumor size were measured every two days. Size of the tumor was calculated with an equation of length×width×width/2.

leukemia L1210 cell line [2] = details: read-out: In vitro (ID50)
leukemia L1210 cell line [3] = tested on: leukemia L1210 cell line

Row | Compound | IC50 (leukemia L1210 cell line [2]) | in vivo T/C (%) (leukemia L1210 cell line [3]; dosage 30 mg/kg) | in vivo T/C (%) (leukemia L1210 cell line [3]; dosage 60 mg/kg) | other results
1 | N.N.[Cl][Pt][Cl] [Cisplatin, reference compound] | – | – | – | The tumor tissue size after injection of an antitumor agent ([1]; 18 days, dosage 4 mg/kg): 161.36 mm^3; The tumor tissue size after injection of an antitumor agent ([1]; 32 days, dosage 4 mg/kg): 330.62 mm^3; The tumor tissue size after injection of an antitumor agent ([1]; 48 days, dosage 4 mg/kg): 588.02 mm^3; The tumor tissue size after injection of an antitumor agent ([1]; 60 days, dosage 4 mg/kg): 815.79 mm^3; tumor tissue growth rate / inhibition effect on it (in words) [1]: not significantly different from that of the control group
2 | poly{[methoxy poly(ethylene glycol)350][glycylglutamato-trans-(±)-1,2-diaminocyclohexaneplatinum(II)]phosphazene}, {NP(MPEG350)1.0[(GlyGlu)Pt(dach)]1.0}n [Example 3] | 3.4 µM | 194.1% | toxic | The tumor tissue size after injection of an antitumor agent ([1]; 18 days, dosage 30 mg/kg): 121.92 mm^3; The tumor tissue size after injection of an antitumor agent ([1]; 18 days, dosage 60 mg/kg): 32.69 mm^3; The tumor tissue size after injection of an antitumor agent ([1]; 32 days, dosage 30 mg/kg): 210.38 mm^3; The tumor tissue size after injection of an antitumor agent ([1]; 32 days, dosage 60 mg/kg): 72.08 mm^3; The tumor tissue size after injection of an antitumor agent ([1]; 48 days, dosage 30 mg/kg): 111.23 mm^3; The tumor tissue size after injection of an antitumor agent ([1]; 48 days, dosage 60 mg/kg): 65.36 mm^3; The tumor tissue size after injection of an antitumor agent ([1]; 60 days, dosage 30 mg/kg): 22.71 mm^3; The tumor tissue size after injection of an antitumor agent ([1]; 60 days, dosage 60 mg/kg): 91.10 mm^3; tumor tissue growth rate / inhibition effect on it (in words) [1]: outstanding compared with that of cisplatin
3 | poly{[methoxy poly(ethylene glycol)350][glycylglutamato-trans-(±)-1,2-diaminocyclohexaneplatinum(II)]phosphazene}, {NP(MPEG350)1.2[(GlyGlu)Pt(dach)]0.8}n [Example 2] | 6.9 µM | 208.1% | > 305.6% | –
4 | poly{[methoxy poly(ethylene glycol)350][glycylglutamato-trans-(±)-1,2-diaminocyclohexaneplatinum(II)]phosphazene}, {NP(MPEG350)1.4[(GlyGlu)Pt(dach)]0.6}n [Example 5] | 6.2 µM | 244.3% | 231.1% | –
5 | poly{[methoxy poly(ethylene glycol)350][glycylglutamato-trans-(±)-1,2-diaminocyclohexaneplatinum(II)]phosphazene}, {NP(MPEG350)1.5[(GlyGlu)Pt(dach)]0.5}n [Example 1] | 8.2 µM | 178/30% | – | –
6 | poly{[methoxy poly(ethylene glycol)550][glycylglutamato-trans(±trans-(±)-1,2-diaminocyclohexaneplatinum(II)]phosphazene}, {NP(MPEG350)1.12[(GlyGlu)Pt(dach)]0.88}n [Example 7] | > 40 µM | 228.2% | 209.4% | –
7 | pol{[methoxy poly(ethylene glycol)350][glycylglutamato-trans-(±)-1,2-diaminocyclohexaneplatinum(II)]phosphazene}, {NP(MPEG350)1.2[(GlyGlu)Pt(dach)]0.8}n [Example 4] | 3.5 µM | 186.8% | 216.8% | –
